# Article PMC7539012, “Hyperphosphorylated tau aggregation and cytotoxicity modulators screen identified prescription drugs linked to Alzheimer's disease and cognitive functions” (Scientific Reports, 2020)
# Where a name gives a salt, the structure may show the parent alone.
# Test system: T1, 1N4R p-tau
# T1 construct: made in house; host or cells: E. coli (PIMAX system)
# Experiment: p-tau aggregation modulator screen of 1280-compound library (ThS fluorescence net change over 16 h);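 note: 30 µM compound with 6 µM p-tau over 16 h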
# Assay type: biochemical
# Conditions: not given
row,SMILES,ThS net change
1,CN1CC[C@@]2(C)c3cc(O)ccc3N(C)[C@H]12.O=C(O)/C=C/C(=O)O [(-)-Eseroline fumarate salt],309
2,COc1ccc2cc([C@@H](C)C(=O)[O-])ccc2c1.[Na+] [(R) -Naproxen sodium salt],376
3,CC(C)NC[C@@H](O)COc1cccc2ccccc12.Cl [(R)-Propranolol hydrochloride],416
4,CC(C)NC[C@H](O)COc1cccc2ccccc12 [(S)-propranolol hydrochloride],434
5,CC(=O)NCCCS(=O)(=O)O [Acamprosate calcium],422
6,COc1cc(C)c(/C=C/C(C)=C/C=C/C(C)=C/C(=O)O)c(C)c1C [Acitretin],316
7,CCCSc1ccc2nc(NC(=O)OC)[nH]c2c1 [Albendazole],324
8,C=CC[N@@+]12CC[C@]34c5ccccc5N5/C=C6\C7N(/C=C(\C53)[C@@H](C[C@@H]41)/C(=C/CO)C2)c1ccccc1[C@@]71CC[N@@+]2(CC=C)C/C(=C\CO)[C@@H]6C[C@@H]12.[Cl-].[Cl-] (stereo partly shown) [Alcuronium chloride],460
9,NCCCC(O)(P(=O)(O)O)P(=O)(O)O [Alendronate sodium],381
10,CC(=O)[C@H]1CC[C@H]2[C@@H]3CC[C@H]4C[C@H](O)CC[C@]4(C)[C@H]3C(=O)C[C@]12C [Alfaxalone],420
11,C=CC[C@]1(O)CC[C@H]2[C@@H]3CCC4=CC(=O)CCC4=C3C=C[C@@]21C [Altrenogest],432
12,NCC[C@H](O)C(=O)N[C@@H]1C[C@H](N)[C@@H](O[C@H]2O[C@H](CN)[C@@H](O)[C@H](O)[C@H]2O)[C@H](O)[C@H]1O[C@H]1O[C@H](CO)[C@@H](O)[C@H](N)[C@H]1O.O.O [Amikacin hydrate],418
13,NCCCCCC(=O)O [Aminocaproic acid],456

# Same assay, conditions: 1280-compound library screen; ThS fluorescence net change over 16 h
row,SMILES,ThS net change
1,CC(C)(C)NC[C@H](O)COc1cccc2c1CCCC2=O.Cl [(-) -Levobunolol hydrochloride],397
2,CC(C)NC[C@H](O)c1ccc(O)c(O)c1.Cl [(-)-Isoproterenol hydrochloride],400
3,CCCC(=O)Nc1ccc(OCC(O)CNC(C)C)c(C(C)=O)c1 (stereo not shown) [Acebutolol hydrochloride],381
4,O=C(O)COC(=O)Cc1ccccc1Nc1c(Cl)cccc1Cl [Aceclofenac],390
5,CC(=O)Nc1ccc(O)cc1 [Acetaminophen],385
6,COc1cc2nc(N(C)CCCNC(=O)C3CCCO3)nc(N)c2cc1OC (stereo not shown) [Alfuzosin hydrochloride],391
7,C=CCN1CCCC1CNC(=O)c1cc2nn[nH]c2cc1OC.Cl (stereo not shown) [Alizapride HCl],383
8,NC(=O)NC1NC(=O)NC1=O (stereo not shown) [Allantoin],390
9,Oc1ncnc2[nH]ncc12 [Allopurinol],396
10,C=CCSCC1Nc2cc(Cl)c(S(N)(=O)=O)cc2S(=O)(=O)N1 (stereo not shown) [Althiazide],409
11,NCCCNCCSP(=O)(O)O [Amifostine],392
12,N=C(N)NC(=O)c1nc(Cl)c(N)nc1N [Amiloride hydrochloride dihydrate],401
13,Nc1c2ccccc2nc2ccccc12 [Aminacrine],408
14,Cn1c(=O)c2[nH]cnc2n(C)c1=O [Aminophylline],403

# Same assay, conditions: 1280-compound library screen; […]
row,SMILES,ThS net change
1,CC(=O)OC1CN2CCC1CC2 (stereo not shown) [Aceclidine Hydrochloride],409
2,CC(=O)OCC(=O)[C@H]1CC[C@H]2[C@@H]3CC[C@H]4C[C@H](O)CC[C@]4(C)[C@H]3C(=O)C[C@]12C [Alfadolone acetate],396
3,CCN(CC)C(C)C(=O)c1ccccc1 (stereo not shown) [Amfepramone hydrochloride],388

# Same assay, conditions: library screen, ThS fluorescence net change over 16 h with p-tau
row,SMILES,ThS net change
1,CC(=O)c1ccc2c(c1)N(CCCN(C)C)c1ccccc1S2.O=C(O)/C=C\C(=O)O [Acetopromazine maleate salt],267
2,CCN(CC)CCOC(=O)C(c1ccccc1)c1ccccc1 [Adiphenine hydrochloride],318
3,CCCCC(CC)CNC(=N)NC(=N)NCCCCCCNC(=N)NC(=N)NCC(CC)CCCC (stereo not shown) [Alexidine dihydrochloride],327
4,C=C1/C(=C\C=C2/CCC[C@]3(C)[C@@H]([C@H](C)CCCC(C)C)CC[C@@H]23)C[C@@H](O)C[C@@H]1O [Alfacalcidol],284

# Same assay, conditions: p-tau aggregation modulator screen of 1280-compound library; ThS fluorescence net change
row,SMILES,ThS net change
1,CC(C)(C)NC[C@@H](O)COc1cccc2c1CCCC2=O.Cl [(+) -Levobunolol hydrochloride],350
2,CC(C)NC[C@@H](O)c1ccc(O)c(O)c1.O=C(O)C(O)C(O)C(=O)O [(+)-Isoproterenol (+)-bitartrate salt],345
3,Nc1nc(=O)n([C@@H]2CS[C@H](CO)O2)cc1F [(-)-Emtricitabine],359
4,Nc1nc(NC2CC2)c2ncn([C@H]3C=C[C@@H](CO)C3)c2n1 [Abacavir Sulfate],363
5,COc1ccc2c(c1)c(CC(=O)OCC(=O)O)c(C)n2C(=O)c1ccc(Cl)cc1 [Acemetacin],349
6,CC(=O)c1ccc(S(=O)(=O)NC(=O)NC2CCCCC2)cc1 [Acetohexamide],360
7,CC(=O)Oc1ccccc1C(=O)Oc1ccccc1C(=O)O [Acetylsalicylsalicylic acid],363
8,Cc1cnc(C(=O)O)c[n+]1[O-] [Acipimox],369
9,Nc1nc2c(ncn2COCCO)c(=O)[nH]1 [Acyclovir],367
10,C=CCc1ccccc1OCC(O)CNC(C)C (stereo not shown) [Alprenolol hydrochloride],376
11,CCN(CCCc1ccccc1)CCCc1ccccc1.O=C(O)CC(O)(CC(=O)O)C(=O)O [Alverine citrate salt],374
12,Cl.Nc1c(Br)cc(Br)cc1CN[C@H]1CC[C@H](O)CC1 [Ambroxol hydrochloride],364
13,Cc1c(N(C)C)c(=O)n(-c2ccccc2)n1C [Amidopyrine],368
14,Nc1ccc(C(=O)NCC(=O)O)cc1 [Aminohippuric acid],344
15,"c1ccc(CNc2ncnc3nc[nH]c23)cc1 [Aminopurine, 6-benzyl]",348
16,CN(C)CCCO[C@@H]1[C@H]2OC(C)(C)O[C@H]2O[C@@H]1[C@H](O)CO [Amiprilose hydrochloride],367
17,CN(C)CCC=C1c2ccccc2CCc2ccccc21.Cl [Amitryptiline hydrochloride],362
18,CCOC(=O)C1=C(COCCN)NC(C)=C(C(=O)OC)C1c1ccccc1Cl (stereo not shown) [Amlodipine],351

# Same assay, conditions: p-tau aggregation modulator screen of 1280-compound library; […]
row,SMILES,ThS net change
1,C[C@@]12N[C@@H](Cc3ccccc31)c1ccccc12.O=C(O)/C=C\C(=O)O [(-)-MK 801 hydrogen maleate],354
2,Nc1ncnc2c1ncn2[C@@H]1O[C@H](COP(=O)(O)O)[C@@H](O)[C@H]1O.O [Adenosine 5'-monophosphate monohydrate],369
3,C[C@]12CCC(=O)C=C1CC[C@@H]1[C@@H]2C(=O)C[C@]2(C)C(=O)CC[C@@H]12 [Adrenosterone],334
4,CCC(=O)OCC(=O)[C@@]1(OC(=O)CC)[C@H](C)C[C@H]2[C@H]3[C@H]([C@@H](O)C[C@@]21C)[C@@]1(C)C=CC(=O)C=C1C[C@H]3Cl [Alclometasone dipropionate],363
5,CC(=O)[C@@]12O[C@](C)(c3ccccc3)O[C@@H]1C[C@H]1[C@@H]3CCC4=CC(=O)CC[C@]4(C)[C@H]3CC[C@@]12C [Algestone acetophenide],336
6,CC(C)c1ccc2oc3nc(N)c(C(=O)O)cc3c(=O)c2c1 [Amlexanox],376

# Same assay, conditions: p-tau aggregation modulator screen of the compound library, ThS fluorescence net change
row,SMILES,ThS net change
1,O=c1[nH]cc(F)c(=O)[nH]1 [5-fluorouracil],471
2,c1coc(CNc2ncnc3nc[nH]c23)c1 [6-Furfurylaminopurine],413
3,C[C@H]1O[C@H](O[C@H]2[C@H](O)[C@@H](O)[C@@H](O[C@H]3[C@H](O)[C@@H](O)C(O)O[C@@H]3CO)O[C@@H]2CO)[C@H](O)[C@@H](O)[C@@H]1N[C@H]1C=C(CO)[C@@H](O)[C@H](O)[C@H]1O (stereo partly shown) [Acarbose],414
4,Cn1c(=O)c2c(ncn2CC(=O)O)n(C)c1=O [Acefylline],416
5,CC(=O)CC(c1ccc([N+](=O)[O-])cc1)c1c(O)c2ccccc2oc1=O (stereo not shown) [Acenocoumarol],568
6,CC(=O)Nc1nnc(S(N)(=O)=O)s1 [Acetazolamide],429
7,CC(=O)N[C@@H](CS)C(=O)O [Acetylcysteine],423
8,CC(=O)Oc1ccccc1C(=O)O [Acetylsalicylic acid],492
9,CC(=O)Nc1ccc(CC(=O)O)cc1 [Actarit],435
10,NC12CC3CC(CC(C3)C1)C2.NC12CC3CC(CC(C3)C1)C2.O=C(O)/C=C/C(=O)O [Adamantamine fumarate],423
11,COc1ccc(-c2ccc3cc(C(=O)O)ccc3c2)cc1C12CC3CC(CC(C3)C1)C2 [Adapalene],477
12,Cc1[nH]cnc1CN1CCc2c(c3ccccc3n2C)C1=O [Alosetron hydrochloride],429
13,CCCCC[C@H](O)/C=C/[C@H]1[C@H](O)CC(=O)[C@@H]1CCCCCCC(=O)O [Alprostadil],445
14,CN(C)c1nc(N(C)C)nc(N(C)C)n1 [Altretamine],414
15,COC(c1ccccc1)(c1ccccc1)[C@H](Oc1nc(C)cc(C)n1)C(=O)O [Ambrisentan],506
16,CC(=O)OCC(=O)[C@@]12OC3(CCCC3)O[C@@H]1C[C@H]1[C@@H]3CCC4=CC(=O)C=C[C@]4(C)[C@@]3(F)[C@@H](O)C[C@@]12C [Amcinonide],477
17,CCCCc1oc2ccccc2c1C(=O)c1cc(I)c(OCCN(CC)CC)c(I)c1 [Amiodarone hydrochloride],436
18,CCN1CCCC1CNC(=O)c1cc(S(=O)(=O)CC)c(N)cc1OC (stereo not shown) [Amisulpride],428
